Laboratory results as given in paper PMC11413853, “Discovery of VU6007496: Challenges in the Development of an M1 Positive Allosteric Modulator Backup Candidate” (ACS Chemical Neuroscience, 2024).

Columns and labels:
rCYP2J2 = assay: Substrate depletion with recombinant human CYPs, rCYP2J2; format: in vitro ADME
Description: (§1) To advance 11 as a candidate and into IND-enabling studies, we next needed to better understand its CYP profile to minimize drug–drug interactions in the clinic. […] We were pleased to see the contribution of another CYP beyond 3A4 for the metabolism of 11.[21] In parallel, we investigated the ability of PAM 11 to induce the expression of CYP450s (measuring mRNA) in cryopreserved human hepatocytes from three separate donors.

CYP3A4 = assay: CYP induction (mRNA) in cryopreserved human hepatocytes, CYP3A4; format: in vitro ADME; settings: three donors
Description: as §1

MET ID in human liver S9 = format: in vitro ADME; settings: based on MS peak areas
Description: Eight oxidative metabolites were identified, with the major metabolite in both rat and human being Metabolite A (VU6036463, 24), the result of oxidative N-demethylation of the southern pyrazole (Scheme 4). The majority of other oxidative metabolism occurred on the tetrahydropyran moiety and included ring opening, but there was no amide hydrolysis observed.[21]

Bradykinin B2 = assay: Eurofins radioligand binding; design: species or system Human; settings: specific binding
Dopamine D3 = assay: Eurofins radioligand binding; design: species or system Human; settings: specific binding
[1] = tested on: Epidermal Growth Factor (EGF); assay: Eurofins radioligand binding; design: species or system Human; settings: specific binding
Glucocorticoid = assay: Eurofins radioligand binding; design: species or system Human; settings: specific binding
[2] = tested on: Glutamate, NMDA, Phencyclidine; assay: Eurofins radioligand binding; design: species or system Rat; settings: specific binding
Histamine H3 = assay: Eurofins radioligand binding; design: species or system Human; settings: specific binding
[3] = tested on: Nicotinic Acetylcholine α3β4; assay: Eurofins radioligand binding; design: species or system Human; settings: specific binding
Opiate μ (OP3, MOP) = assay: Eurofins radioligand binding; design: species or system Human; settings: specific binding
[4] = tested on: Purinergic P2Y, Non-Selective; assay: Eurofins radioligand binding; design: species or system Rat; settings: specific binding
Rolipram = assay: Eurofins radioligand binding; design: species or system Rat; settings: specific binding
Transporter, GABA = assay: Eurofins radioligand binding; design: species or system Rat; settings: specific binding

For Cn1ccc(-c2ccc(Cc3cc(C(=O)NC4CCOCC4)nc4ccn(C)c34)cc2)n1 [compound 11], the “share of hepatic CYP-mediated clearance, rCYP2J2” value (rCYP2J2) was 2.4%, the “CYP3A4 induction (mRNA)” value (CYP3A4) was roughly 21 fold and the “extent of metabolism, human liver S9” value (MET ID in human liver S9) was 58.1%. For the same compound, the “% Inhibition at 10 µM” value (Bradykinin B2) was -3%, the “% Inhibition at 10 µM” value (Dopamine D3) was 8% and the “% Inhibition at 10 µM” value [1] was 5%. The “% Inhibition at 10 µM” value (Glucocorticoid) was 5%, the “% Inhibition at 10 µM” value [2] was 7% and the “% Inhibition at 10 µM” value (Histamine H3) was -12%. The “% Inhibition at 10 µM” value [3] was 6%, the “% Inhibition at 10 µM” value (Opiate μ (OP3, MOP)) was -4% and the “% Inhibition at 10 µM” value [4] was -9%. For the same compound, the “% Inhibition at 10 µM” value (Rolipram) was 10% and the “% Inhibition at 10 µM” value (Transporter, GABA) was -17%.
